{"source": "paper PMC10145264", "about": "“Synthesis and Biological Properties of EGFR-Targeted Photosensitizer Based on Cationic Porphyrin” (Pharmaceutics, 2023)", "origin": "cited, not measured here", "key": {"[1]": {"set-up": "method as in doi:10.1016/j.chemphys.2006.07.040, doi:10.1007/BF03356111, doi:10.1016/j.jphotochemrev.2020.100401", "details": "standard value"}, "[2]": {"set-up": "method as in PMID 24063545", "details": "standard value"}}}
{"compound": "C1=Cc2nc1c(-c1ccccc1)c1ccc([n-]1)c(-c1ccccc1)c1nc(c(-c3ccccc3)c3ccc([n-]3)c2-c2ccccc2)C=C1.[Zn+2]", "note": "[ZnTPP, zinc tetraphenylporphyrin]", "values": [{"measurement": "fluorescence quantum yield (ΦF)", "setting": "[1]", "result": 0.033}, {"measurement": "singlet oxygen quantum yield (ΦΔ)", "setting": "[2]", "result": 0.74}]}
